Test results as given in PubChem BioAssay (NCI).
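Following 48 hours of exposure in 96-well plates, responses at five concentrations were used to interpolate endpoints linearly. TGI is the concentration that stops growth completely.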

What was measured:
Experiment in all cases: NCI anticancer screen, dose series, 48 h
[1] = tested on: SF-268 CNS
[2] = tested on: MALME-3M melanoma
[3] = tested on: OVCAR-8 ovarian
[4] = tested on: A498 renal
[5] = tested on: SF-539 CNS
[6] = tested on: SK-MEL-2 melanoma
[7] = tested on: A549 NSCLC
[8] = tested on: IGROV1 ovarian
[9] = tested on: T-47D breast
[10] = tested on: LOX IMVI melanoma
[11] = tested on: HS 578T breast
[12] = tested on: MDA-MB-435
[13] = tested on: HOP-92 NSCLC
[14] = tested on: MCF7 breast

SMILES | TGI [1] [µM] | TGI [2] [µM] | TGI [3] [µM] | TGI [4] [µM] | TGI [5] [µM] | TGI [6] [µM] | TGI [7] [µM] | TGI [8] [µM] | TGI [9] [µM] | TGI [10] [µM] | TGI [11] [µM] | TGI [12] [µM] | TGI [13] [µM] | TGI [14] [µM]
CSc1ccc2c(cc1=O)C(NC(=O)c1ccc(OC(C)=O)cc1)CCc1cc(O)c(O)c(O)c1-2 (configuration not stated) | > 100 | > 100 | 60.2 | > 100 | 40.1 | 49.7 | > 100 | – | – | – | – | – | – | –
Cc1ccc(CS(=O)(=O)C/N=c2\sc3ccccc3nc2/C=C(\O)c2ccc(Cl)cc2)cc1 | > 10 | > 10 | > 10 | – | > 10 | – | > 10 | > 10 | > 10 | > 10 | > 10 | > 10 | > 10 | > 10
NC(=S)N1N=C2c3ccccc3CC[C@H]2[C@@H]1c1cccs1 | > 100 | 80.2 | > 100 | > 100 | > 100 | 79 | > 100 | > 100 | – | > 100 | – | – | > 100 | –
O=C1c2nn(-c3ccccc3)nc2C(c2ccccc2)N1c1ccccc1 (configuration not stated) | > 100 | > 100 | > 100 | – | > 100 | > 100 | > 100 | > 100 | – | > 100 | – | – | – | –
CCN1CC2=C(NC(=S)NC2c2cc(OC)c(OC)c(OC)c2)/C(=C/c2cc(OC)c(OC)c(OC)c2)C1 (configuration not stated) | 37.7 | 31.5 | 61.6 | 87.8 | – | > 100 | > 100 | > 100 | – | > 100 | – | > 100 | 60.4 | > 100
CCOc1ccc(N=Nc2ccc3oc(=O)c(C(=O)Nc4ccc(OC)cc4)cc3c2)cc1 | 78.4 | > 100 | 67.6 | > 100 | 51 | 54.4 | > 100 | > 100 | – | 55.6 | – | – | – | –
NCC(NC(=O)OCc1ccccc1)C(=O)O (configuration not stated) | > 50 | > 50 | > 50 | > 50 | > 50 | > 50 | > 50 | > 50 | – | > 50 | – | – | > 50 | –
O=c1c2ccccc2nc(-c2ccccc2)n1NC(=S)Nc1ccc(Cl)cc1[N+](=O)[O-] | > 100 | > 100 | > 100 | > 100 | > 100 | > 100 | > 100 | > 100 | – | > 100 | – | – | > 100 | –
CC1(C)C2CCC3(OCCO3)C1C1OC12 (configuration not stated) | > 100 | > 100 | > 100 | > 100 | > 100 | > 100 | > 100 | – | – | > 100 | – | – | > 100 | –
Cc1nc2ccccc2c(=O)n1NC(=O)c1ccccc1O | > 100 | – | > 100 | > 100 | > 100 | – | > 100 | > 100 | – | > 100 | > 100 | > 100 | > 100 | > 100
O=P1(Oc2ccc(Cl)cc2)OCCS1 (configuration not stated) | > 100 | > 100 | > 100 | > 100 | > 100 | > 100 | > 100 | > 100 | > 100 | > 100 | > 100 | – | > 100 | –
CC(C)C(=O)/C=C/c1ccc(Cl)cc1 | 67.5 | – | – | – | 22.6 | 35.4 | 59.7 | 46.3 | – | 22.2 | – | – | 31.6 | –
COC(=O)C1C2C=CC(C2)N1S(=O)(=O)c1ccccc1 (configuration not stated) | > 100 | > 100 | > 100 | > 100 | > 100 | > 100 | > 100 | – | > 100 | – | – | > 100 | > 100 | > 100
CC(C)c1cccc(C(C)C)c1NC(=O)C(=O)C(C(=O)c1ccc2ccccc2c1)C1OC(=O)c2ccccc21 (configuration not stated) | > 100 | > 100 | – | > 100 | > 100 | > 100 | > 100 | > 100 | – | > 100 | – | – | > 100 | –
Cc1c[nH]c(C(=O)O)c1-c1ccc2c(-c3ccccc3)nc3ccccc3n12 | > 100 | – | > 100 | 28.3 | 49.3 | 55.1 | > 100 | 77.8 | > 100 | 63 | 67.3 | 78.1 | > 100 | > 100
O=C1C2CCC(C2)C12CC1(c3ccccc3)C(=O)c3ccccc3N1O2 (configuration not stated) | > 100 | > 100 | > 100 | > 100 | > 100 | – | > 100 | > 100 | – | – | – | – | > 100 | –
COc1ccc(C2=NN(c3ccccc3)C(c3cc4cc(Br)ccc4nc3Cl)C2)cc1 (configuration not stated) | > 25 | > 25 | > 25 | – | > 25 | > 25 | > 25 | > 25 | > 25 | > 25 | > 25 | > 25 | > 25 | –
CC(=O)NCCc1c[nH]c2ccc(Cl)cc12 | > 100 | > 100 | > 100 | – | > 100 | > 100 | > 100 | > 100 | > 100 | > 100 | > 100 | > 100 | > 100 | > 100
COc1ccc([N-]/C(=N\n2c(=O)c(C)nn(C)c2=S)N(c2ccc(OC)cc2)c2nn3c(=O)c(C)n[n+](C)c3s2)cc1 | > 100 | – | > 100 | > 100 | > 100 | – | > 100 | > 100 | – | > 100 | – | – | > 100 | –
CN(C)CC(CO)(CN(C)C)CN(C)C | > 100 | > 100 | > 100 | – | > 100 | – | > 100 | > 100 | – | – | – | – | > 100 | > 100

SMILES | TGI [1] [µM] | TGI [2] [µM] | TGI [3] [µM] | TGI [4] [µM] | TGI [5] [µM] | TGI [6] [µM] | TGI [7] [µM] | TGI [8] [µM] | TGI [9] [µM] | TGI [10] [µM] | TGI [11] [µM] | TGI [12] [µM] | TGI [13] [µM] | TGI [14] [µM]
CN1CCN(C(=S)N(C(=O)c2ccco2)c2ccccc2)CC1 | > 100 | > 100 | > 100 | – | – | > 100 | > 100 | > 100 | > 100 | > 100 | > 100 | > 100 | > 100 | > 100
CC(=O)OCC12C(OC(C)=O)C[C@@H](C)C3(CC(c4ccoc4)OC3=O)C1CCC(O)C21CO1 (some centres not stated) | > 100 | > 100 | > 100 | > 100 | > 100 | > 100 | > 100 | > 100 | – | > 100 | > 100 | > 100 | > 100 | > 100
COc1cc(C(C)c2cc3c(cc2OCCCCOc2cc4c(cc2C(C)c2cc(OC)c(OC)c(OC)c2)OCO4)OCO3)cc(OC)c1OC (configuration not stated) | > 100 | > 100 | > 100 | – | 55.4 | > 100 | > 100 | > 100 | – | > 100 | – | – | – | –
COC(=O)/C=C1/N=C(N(C)/N=C/c2ccccc2)NC1=O | > 100 | > 100 | > 100 | – | > 100 | > 100 | > 100 | > 100 | > 100 | > 100 | > 100 | – | – | > 100
CC1C/C(=N\N(C)C)C(C#N)(C#N)C1(C#N)C#N (configuration not stated) | 24.8 | 13.7 | 45 | – | 34.8 | 48.8 | 69.5 | 38.8 | 37.7 | 19.7 | > 88.3 | 37.4 | 11.6 | 83.8
COP1(=O)NCc2ncccc2O1 (configuration not stated) | – | – | > 100 | > 100 | > 100 | > 100 | > 100 | > 100 | > 100 | > 100 | – | > 100 | > 100 | > 100
Cc1ccc(-n2c(Cn3nnc(-c4cccnc4)n3)nn(C3OC(COC(=O)c4ccccc4)C(OC(=O)c4ccccc4)C3OC(=O)c3ccccc3)c2=S)cc1 (configuration not stated) | > 100 | > 100 | > 100 | – | > 100 | > 100 | > 100 | > 100 | > 100 | > 100 | > 100 | > 100 | – | > 100
CC(=O)OC1CC2(c3ccccc3)C(=O)c3ccccc3N2O1 (configuration not stated) | > 100 | > 100 | > 100 | > 100 | > 100 | – | > 100 | > 100 | – | – | – | – | > 100 | –
CC(C)CC(=O)NC(NC(C)C)(C(F)(F)F)C(F)(F)F | > 100 | > 100 | > 100 | – | > 100 | > 100 | > 100 | > 100 | > 100 | > 100 | > 100 | > 100 | > 100 | > 100
O=C(CCc1ccc(O)c(O)c1)NCCc1cc(OCc2ccccc2)cc(OCc2ccccc2)c1 | 42.3 | – | 43.4 | 37.7 | 30.1 | 42 | > 100 | 22.5 | 58.2 | 34.5 | 40.2 | 60.8 | 35.6 | 32.2
O=C(OCC12CC3CC(CC(C3)C1)C2)c1ccc(NCc2cc(O)ccc2O)cc1 | 20.5 | – | 7.28 | 11.8 | 1.93 | 8.12 | 12.6 | 3.21 | 2.06 | 4.72 | 12.1 | 7.06 | 17.6 | 36.8
CC1(C)CN=C(Nc2ccc(Cl)cc2)S1 | > 100 | > 100 | > 100 | – | > 100 | > 100 | > 100 | > 100 | > 100 | > 100 | > 100 | > 100 | > 100 | > 100
CCN(CC)Cc1nc(C2CCC([N+](=O)[O-])O2)no1 (configuration not stated) | 79.6 | 30.1 | > 100 | – | 49 | 72.6 | > 100 | > 100 | 98 | > 100 | 82.4 | 35.7 | > 100 | 32.2
CC(C)[Si](OC1=C(C(=O)N(C)c2ccccc2Cl)CCC1)(C(C)C)C(C)C | 33.4 | 34.6 | 31 | 30.7 | 39.5 | – | 32.1 | 33 | 47.1 | 33.7 | – | 42.7 | 32.7 | –
COc1ccc(C(C2C(=O)N(C)C(=O)N(C)C2=O)C(F)(F)C(=O)N(C)C)cc1 (configuration not stated) | > 100 | > 100 | > 100 | > 100 | > 100 | > 100 | > 100 | – | > 100 | > 100 | – | > 100 | > 100 | > 100
O=c1c2cc(Br)cc(Br)c2[nH]c(=S)n1-c1ccccc1 | > 100 | > 100 | > 100 | > 100 | > 100 | > 100 | > 100 | > 100 | – | > 100 | – | – | > 100 | –
C[C@@H](NC(=O)OC1C=CC2(CC1)C(=O)N(C)c1ccccc12)c1cccc2ccccc12 (some centres not stated) | > 25 | – | > 25 | > 25 | – | > 25 | > 25 | > 25 | > 25 | > 25 | – | > 25 | > 25 | > 25
COc1ccccc1S(=O)Nc1ccccc1 (configuration not stated) | > 100 | > 100 | > 100 | – | > 100 | > 100 | > 100 | > 100 | 95.5 | > 100 | > 100 | > 100 | – | > 100
CC12CC[C@H](O)C(C)(C)[C@H]1CC[C@](C)(O)C2COc1ccc2ccc(=O)oc2c1 (some centres not stated) | > 100 | > 100 | > 100 | > 100 | > 100 | > 100 | > 100 | > 100 | – | > 100 | – | – | > 100 | –
